Tests used:
[1] = system: ovalbumin-induced asthma model mice; assay: Ovalbumin-induced asthma model mice: eosinophil count in BAL Fluid; assay type: in vivo, Balb/c mice
[2] = system: ovalbumin-induced pulmonary fibrosis model mice; assay: Ovalbumin-induced pulmonary fibrosis model mice: airway resistance (Penh) after methacholine; assay type: in vivo, Balb/c mice; conditions: valine 15 g/L, dexamethasone 10 mg %, inhalation 40 minutes per day, day 21 to day 42, no treatment 4.0
Experimental: Ovalbumin-induced pulmonary fibrosis model mice were induced by a conventional method using Balb/c mice, and the lung function reduction suppressive effect of coadministration of L-valine (free form) and dexamethasone by inhalation was investigated. 24 hours after antigen exposure on day 42, the pulmonary fibrosis model mice were allowed to inhale methacholine, which is a bronchial constriction inducer, and airway resistance (Penh) was measured using a Buxco whole body plethysmography. Valine (15 g/L) and dexamethasone (10 mg %) were aerosolized with a nebulizer and coadministered by inhalation (40 minutes per day) on consecutive days from day 21 to day 42.

[3] = system: ovalbumin-induced pulmonary fibrosis model mice; assay: Ovalbumin-induced pulmonary fibrosis model mice: hydroxyproline content in lung tissue; assay type: in vivo, Balb/c mice; conditions: valine 15 g/L, dexamethasone 10 mg %, inhalation 40 minutes per day, day 21 to day 42; no treatment 28.7%
Experimental: Ovalbumin-induced pulmonary fibrosis model mice were induced by a conventional method using Balb/c mice, and the pulmonary fibrosis suppressive effect of coadministration of L-valine (free form) and dexamethasone by inhalation was investigated. 24 hours after antigen exposure on day 42, the lungs were extirpated from the pulmonary fibrosis model mice, and the hydroxyproline content in lung tissue was measured as an index of the degree of fibrosis. Valine (15 g/L) and dexamethasone (10 mg %) were aerosolized with a nebulizer and coadministered by inhalation (40 minutes per day) on consecutive days from day 21 to day 42. The results are expressed as increments (%) of the hydroxyproline content in each test group compared to the hydroxyproline content in the lung tissues from normal mice.

[4] = system: ovalbumin-induced asthma model mice; assay: Airway hypersensitivity test (methacholine, whole body plethysmography) in ovalbumin-induced asthma model mice; assay type: in vivo, Balb/c mice; conditions: 3 mM aqueous solution, free water drinking day 0 to day 21; methacholine inhalation; asthma model mice 6.61
Experimental: After elapse of 24 hours following a third antigen exposure, the animals were allowed to inhale methacholine, which is an airway constricting substance, and an airway hypersensitivity test of the ovalbumin-induced asthma mice was performed using a whole body plethysmography. As an index of airway resistance, the Penh value was used. In the ovalbumin-induced asthma model mice, the Penh value was 6.61; in the group receiving a 3 mM aqueous solution of valine administered by the free water drinking method from day 0 to day 21, the Penh value decreased to 3.77.

[5] = system: ovalbumin-induced asthma model mice; assay: Cytokine concentrations in BAL Fluid (ELISA) of ovalbumin-induced asthma model mice; assay type: in vivo, Balb/c mice; conditions: 0.6 mM aqueous solution, free water drinking day 0 to day 21
Experimental: After a 0.6 mM aqueous solution of valine was prepared, it was administered by the free water drinking method from day 0 to day 21. The IFN-γ/IL4 ratio increased from 5.8 for the control group to 8.0 for the valine administration group.

[6] = system: Ovalbumin-immunized Balb/c mice; assay: Cytokine productivity of isolated immune cells (lung macrophages co-cultured with splenocytes) from ovalbumin-immunized mice given valine; assay type: in vivo; conditions: valine 3 mM free water drinking day 0 to day 11, co-cultured with splenocytes 48 hours, ELISA
Experimental: Ovalbumin-immunized Balb/c mice were given L-valine (free form), and changes in the cytokine productivity of isolated immune cells were examined, whereby the effect on the Th1/Th2 balance in a living organism's immune system was investigated. After a 3 mM aqueous solution of valine was prepared, it was administered by the free water drinking method from day 0 to day 11. […] On day 11, macrophages were isolated from the lungs and cultured in the presence of 1 mg/mL ovalbumin overnight, after which they were further co-cultured with splenocytes isolated from an ovalbumin-immunized mouse for 48 hours. After the cultivation, cytokines in the culture supernatant were measured by an ELISA method. […] With valine administration, an increase in the Th1 cytokine content and a reduction in the Th2 cytokine content were observed.

[7] = system: ovalbumin-induced asthma model mice; assay: Lung tissue pathology (H/E staining), immune cell infiltration in ovalbumin-induced asthma model mice; assay type: in vivo, Balb/c mice; conditions: valine 3 mM or ornithine hydrochloride 15 mM, free water drinking day 0 to day 21
Experimental: After elapse of 24 hours following a third antigen exposure, the lungs were extirpated from the mice and fixed in 10% formalin buffer solution, paraffin sections were prepared, and H/E staining was performed. […] Note that FIG. 7(a) is a lung tissue image of a normal mouse without asthma induction.

[8] = 0.6 to 15 mM aqueous solutions, free water drinking day 0 to day 21, 1st of 3 values (respectively), control 33
[9] = 0.6 to 15 mM aqueous solutions, free water drinking day 0 to day 21, 2nd of 3 values (respectively), control 33
[10] = 0.6 to 15 mM aqueous solutions, free water drinking day 0 to day 21, 3rd of 3 values (respectively), control 33

With CC[C@H](C)[C@H](N)C(=O)O [isoleucine, L-isoleucine] the “eosinophil count in the BAL Fluid” value ([1]; 0.45 mM aqueous solution, free water drinking day 0 to day 21, control 20) was 12000 µL⁻¹.

With CC(C)C[C@H](N)C(=O)O [leucine, L-leucine] the “eosinophil count in the BAL Fluid” value ([1]; 0.9 mM aqueous solution, free water drinking day 0 to day 21, control 20) was 7000 µL⁻¹.

In the case of NCC(=O)O [glycine], the “eosinophil count in the BAL Fluid” value [1, 8] is reported as 32000 µL⁻¹, the “eosinophil count in the BAL Fluid” value [1, 9] is reported as 27000 µL⁻¹ and the “eosinophil count in the BAL Fluid” value [1, 10] is reported as 28000 µL⁻¹.

N[C@@H](CO)C(=O)O [serine] was tested, and the “eosinophil count in the BAL Fluid” value [1, 8] was 29000 µL⁻¹, the “eosinophil count in the BAL Fluid” value [1, 9] was 24000 µL⁻¹ and the “eosinophil count in the BAL Fluid” value [1, 10] was 22000 µL⁻¹.

C[C@@H]1C[C@H]2[C@@H]3CCC4=CC(=O)C=C[C@]4(C)[C@@]3(F)[C@@H](O)C[C@]2(C)[C@@]1(O)C(=O)CO [dexamethasone, reference compound] was tested, and the “Penh value (airway resistance)” value [2] was 4.1 and the “increment of hydroxyproline content in lung tissue compared to normal mice” value [3] was 15.4%.

With N=C(N)NCCC[C@H](N)C(=O)O [arginine, L-arginine] the “eosinophil count in the BAL Fluid” value ([1]; 3 to 45 mM aqueous solutions, free water drinking day 0 to day 21, 1st of 3 values (respectively), control 45) was 26000 µL⁻¹, the “eosinophil count in the BAL Fluid” value ([1]; 3 to 45 mM aqueous solutions, free water drinking day 0 to day 21, 2nd of 3 values (respectively), control 45) was 25000 µL⁻¹ and the “eosinophil count in the BAL Fluid” value ([1]; 3 to 45 mM aqueous solutions, free water drinking day 0 to day 21, 3rd of 3 values (respectively), control 45) was 19000 µL⁻¹.

In the case of CC(C)[C@H](N)C(=O)O [valine, L-valine], the “Penh value (index of airway resistance)” value [4] is reported as 3.77, the “Penh value (airway resistance)” value [2] is reported as 4.0 and the “increment of hydroxyproline content in lung tissue compared to normal mice” value [3] is reported as 31%. The “effect on eosinophil count in the BAL Fluid compared to the control group” value ([1]; 15 mM, free water drinking started at first suction exposure (day 12)) was “no significant effect”, the “eosinophil count in the BAL Fluid” value ([1]; 0.12 to 15 mM aqueous solutions, free water drinking day 0 to day 21, 1st of 4 values (respectively), control 36) was 26000 µL⁻¹ and the “eosinophil count in the BAL Fluid” value ([1]; 0.12 to 15 mM aqueous solutions, free water drinking day 0 to day 21, 2nd of 4 values (respectively), control 36) was 23000 µL⁻¹. The “eosinophil count in the BAL Fluid” value ([1]; 0.12 to 15 mM aqueous solutions, free water drinking day 0 to day 21, 3rd of 4 values (respectively), control 36) was 17000 µL⁻¹, the “eosinophil count in the BAL Fluid” value ([1]; 0.12 to 15 mM aqueous solutions, free water drinking day 0 to day 21, 4th of 4 values (respectively), control 36) was 28000 µL⁻¹ and the “eosinophil count in the BAL Fluid” value ([1]; 0.6, 3, or 15 g/L aqueous solution, oral by sonde 100 μL/time/animal twice a day, day 0 to day 21) was “decreased with dependence on the dose”. The “eosinophil count in the BAL Fluid” value ([1]; 0.6 or 15 g/L aqueous solution, inhalation (nebulizer) once daily 30 minutes, 5 days/week, day 11 to day 21) was “decreased with dependence on the dose”, the “IL-4 in BAL Fluid” value ([5]; ELISA, control 69.1) was 120.7 pg/mL and the “IFN-γ in BAL Fluid” value ([5]; ELISA, control 403.8) was 970.4 pg/mL. For the same molecule, the “IFN-γ/IL-4 ratio in BAL Fluid” value ([5]; control 5.8) was 8.0, the “IL-4 (pg/mL) Mean, culture supernatant” value [6] was 9.2 pg/mL and the “IFN-γ (pg/mL) Mean, culture supernatant” value ([6]; control 147.0) was 341.1 pg/mL. The “lung tissue symptoms (immune cell infiltration, hypertrophy of bronchial epithelial cells, mucosa-producing cells, bronchial stenosis)” value [7] was “all of the above-described symptoms were potently suppressed, and no bronchial stenosis was observed”.
